Test results published in US20040127501A1, “Therapeutic agents useful for treating pain” (priority 2002, published 2004).

Biological target: T1, mGluR5 (Rattus norvegicus, UniProt P31424)
T1 construct: The procedure allows the expression of the mGluR5 receptor by astrocytes; endogenous in cells; host or cells: secondary astrocyte cultures from embryonic (E18) Sprague-Dawley cortex, EGF-treated
Assay: mGluR5 calcium mobilization flux assay in primary astrocytes (Fluo-4, Fluorometric Imaging Plate reader)
Format: cell-based, rat (Sprague-Dawley)
Conditions: astrocytes expressing mGluR5; calcium mobilization flux with glutamate (final 10 mM); mean of 5 experiments
Protocol: Cell cultures: Primary glial cultures were prepared from cortices of Sprague-Dawley 18 days old embryos. The cortices were dissected and then dissociated by trituration. The resulting cell homogenate was plated onto poly-D-lysine precoated T175 flasks (BIOCOAT, commercially available from Becton Dickinson and Company Inc. of Franklin Lakes, N.J.) in Dulbecco's Modified Eagle's Medium (“DMEM,” pH 7.4), buffered with 25 mM HEPES, and supplemented with 15% fetal calf serum (“FCS,” commercially available from Hyclone Laboratories Inc. of Omaha, Nebr.), and incubated at 37° C. and 5% CO2. After 24 hours, FCS supplementation was reduced to 10%. […]
Assay Protocol: After 3-5 days incubation with EGF, the astrocytes were washed with 127 mM NaCl, 5 mM KCl, 2 mM MgCl2, […] NaH2PO4, 2 mM CaCl2, 5 mM NaHCO3, 8 mM HEPES, 10 mM Glucose at pH 7.4 (“Assay Buffer”) and loaded with the dye Fluo-4 (commercially available from Molecular Probes Inc. of Eugene, Oreg.) using 0.1 mL of Assay Buffer containing Fluo-4 ([…]). […] The plates containing the astrocytes were then transferred to a Fluorometric Imaging Plate reader (commercially available from Molecular Devices Corporation of Sunnyvale, Calif.) for the assessment of calcium mobilization flux in the presence of glutamate and in the presence or absence of antagonist. […] In each experiment each data point was determined two times.

T1 sequence (P31424 21-1203): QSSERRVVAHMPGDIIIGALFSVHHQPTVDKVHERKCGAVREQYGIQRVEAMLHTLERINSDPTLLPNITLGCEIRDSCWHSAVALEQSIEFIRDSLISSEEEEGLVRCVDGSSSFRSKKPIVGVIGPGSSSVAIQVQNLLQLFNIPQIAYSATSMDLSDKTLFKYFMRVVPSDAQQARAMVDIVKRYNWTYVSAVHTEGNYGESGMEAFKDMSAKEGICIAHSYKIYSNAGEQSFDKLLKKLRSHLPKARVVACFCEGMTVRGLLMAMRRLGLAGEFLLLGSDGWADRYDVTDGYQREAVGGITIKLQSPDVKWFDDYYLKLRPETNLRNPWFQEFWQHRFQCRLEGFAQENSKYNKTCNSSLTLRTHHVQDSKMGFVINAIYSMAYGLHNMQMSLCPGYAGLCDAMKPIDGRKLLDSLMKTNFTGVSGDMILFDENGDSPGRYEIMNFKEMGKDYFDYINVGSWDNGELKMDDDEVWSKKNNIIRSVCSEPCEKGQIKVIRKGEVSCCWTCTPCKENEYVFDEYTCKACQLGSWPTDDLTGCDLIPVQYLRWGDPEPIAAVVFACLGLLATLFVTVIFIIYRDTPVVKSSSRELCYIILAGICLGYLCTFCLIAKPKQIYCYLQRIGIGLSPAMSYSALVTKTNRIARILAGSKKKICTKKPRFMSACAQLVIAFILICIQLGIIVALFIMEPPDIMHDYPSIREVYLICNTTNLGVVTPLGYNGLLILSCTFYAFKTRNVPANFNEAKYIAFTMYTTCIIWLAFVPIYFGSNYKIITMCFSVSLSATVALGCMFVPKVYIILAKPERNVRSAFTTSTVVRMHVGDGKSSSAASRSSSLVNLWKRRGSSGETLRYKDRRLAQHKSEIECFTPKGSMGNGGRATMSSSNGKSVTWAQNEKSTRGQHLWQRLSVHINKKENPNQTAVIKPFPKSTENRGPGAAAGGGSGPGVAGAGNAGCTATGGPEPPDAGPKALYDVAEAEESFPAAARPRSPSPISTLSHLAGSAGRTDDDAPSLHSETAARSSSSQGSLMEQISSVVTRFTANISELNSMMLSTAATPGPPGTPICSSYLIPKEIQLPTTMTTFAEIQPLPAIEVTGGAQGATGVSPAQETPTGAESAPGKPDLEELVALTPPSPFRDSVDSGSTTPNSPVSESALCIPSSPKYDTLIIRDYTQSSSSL

`O=C(C#Cc1ccccc1)N1CCN(c2ncccn2)CC1` [Compound AAA(IIa)] gave an IC50 of 555 ± 137 nM.
